Literature values as cited in patent US20230301939A1, “NOVEL FO[…]” (Neurocentrx Pharma Ltd., priority 2018, published 2023).
Where two headings read alike, the source gives them in different places.

Experiments:
[1] = system: mice
[2] = biological target: T1, a7 nicotinic acetylcholine receptor (Rattus norvegicus, UniProt Q05941); details: for Negative allosteric modulator activity in words: KXa7R1 cell line, ketamine at the same concentrations (<1 μM)
T1 construct: expressed in transfected cells; host or cells: KXa7R1 cell line (HEK293)

[3] = in vivo

T1 sequence (Q05941 23-502): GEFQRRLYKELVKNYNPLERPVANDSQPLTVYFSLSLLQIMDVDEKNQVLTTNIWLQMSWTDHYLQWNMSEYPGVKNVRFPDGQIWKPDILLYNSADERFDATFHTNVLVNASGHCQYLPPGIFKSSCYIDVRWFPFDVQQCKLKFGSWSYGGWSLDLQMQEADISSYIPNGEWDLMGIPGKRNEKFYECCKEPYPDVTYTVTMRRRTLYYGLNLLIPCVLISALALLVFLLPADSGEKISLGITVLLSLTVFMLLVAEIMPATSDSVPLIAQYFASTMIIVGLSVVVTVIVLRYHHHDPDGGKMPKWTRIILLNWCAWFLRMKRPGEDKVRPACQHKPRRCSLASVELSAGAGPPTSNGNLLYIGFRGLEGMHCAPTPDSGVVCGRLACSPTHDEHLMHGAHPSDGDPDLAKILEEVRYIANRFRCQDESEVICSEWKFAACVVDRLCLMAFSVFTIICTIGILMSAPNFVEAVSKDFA

In the case of N[C@@]1(c2ccccc2Cl)CCC[C@@H](O)C1=O [(2R,6R)-HNK], the “Antidepressant(-like) effect” value [1] is listed as “ketamine-type antidepressant-like effects”.

For CNC1(c2ccccc2Cl)CCCCC1=O (centres unmarked) [Ketamine, ketamine], the Bioavailability (intramuscularly) is listed as 93%, the “Time to peak plasma concentrations” value (intramuscularly) is listed as 5 to 15 min and the Bioavailability (intranasally) is listed as 8-50%. For the same compound, the “Time to peak plasma concentrations” value (intravenously) was “within a minute”, the Bioavailability (oral route) was 17-20% and the “Duration of action in a clinical setting” value (orally) was 4 to 6 h. The “Time to peak plasma concentrations” value (orally) was 30 min, the Bioavailability (rectally) was 30% and the “Negative allosteric modulator activity in words” value [2] was “inactive”.

In the case of CN[C@@]1(c2ccccc2Cl)CCCCC1=O [arketamine], the “Antidepressant(-like) effect” value [1] is given as “greater and lasted longer than that of esketamine”.

In the case of NC1(c2ccccc2Cl)CCC=CC1=O (centres unmarked) [dehydronorketamine], the IC50 ([2]; KXa7R1 cell line (HEK293 cells transfected with rat nicotinic acetylcholine receptor genes)) is listed as 55 nM and the “Negative allosteric modulator activity in words” value [2] is listed as “nanomolar potencies”.

In the case of NC1(c2ccccc2Cl)CCCC(O)C1=O (centres unmarked) [hydroxynorketamine], the “Negative allosteric modulator activity in words” value [2] is listed as “nanomolar potencies”.

In the case of NC1(c2ccccc2Cl)CCCCC1=O (centres unmarked) [norketamine], the “Plasma levels relative to ketamine” value (following oral administration of ketamine) is listed as “three times higher”, the “Potency as an anesthetic relative to ketamine” value [3] is listed as “one-third to one-fifth as potent” and the “Negative allosteric modulator activity in words” value [2] is listed as “nanomolar potencies”.
